Measured values from the METLIN SMRT retention time set (Domingo-Almenara et al. 2019).

Assay: gradient 5% acetonitrile 3 min, to 50% in 2 min, to 85% in 15 min, held 3 min, 100 µL/min
Settings: column: Zorbax Extend-C18 2.1 x 50 mm; eluents: water / acetonitrile, 0.1% formic acid
Outline: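 Over 3 months, pure standards in mixtures of ~100 molecules were run by HPLC coupled to a quadrupole time-of-flight mass spectrometer in positive and negative ionization mode. The column was a Zorbax Extend-C18 (2.1 × 50 mm, 1.8 μm) at 100 μL/min, eluted with water and acetonitrile each holding 0.1% formic acid, with 40 μL dead and 900 μL dwell volumes. Retention time was determined from adduct peaks chosen by software and checked manually.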

| RP-LC retention time | SMILES |
| --- | --- |
| 1280 s | Cc1ccc(-c2noc(-c3ccc(=O)n(CCC(C)C)n3)n2)cc1 |
| 872 s | CCc1ccc(NC(=O)Nc2cccn3ncnc23)cc1 |
| 674 s | CN1C(=O)c2ccccc2C(C(=O)NCCN(Cc2ccco2)C2CCCC2)C1c1cccs1 (stereo not given) |
| 702 s | O=C(CCc1c(-c2ccc(Br)cc2)nc2ccccn12)NC1CCCCC1 |
| 1030 s | Cc1cccc(N2CCN(C(=O)C3CCN(c4ncnc5c4oc4ccccc45)CC3)CC2)c1C |
| 1060 s | CC(C)n1c(=O)oc2cc(-c3noc(-c4ccccc4)n3)ccc21 |
| 754 s | O=C(NC1CCCCCCC1)c1nnc(-c2ccc(S(=O)(=O)N3CCCCC3)cc2)o1 |
| 740 s | CCC(=O)NC(C)c1nc(-c2ccccc2Cl)no1 (stereo not given) |
| 1070 s | CC(C)Oc1ccc(-c2noc(CN3N=NC4C(=O)N(c5ccc(F)cc5)C(=O)C43)n2)cc1 (stereo not given) |
| 615 s | Cc1cc(N2CCN(C)CC2)nc(N2CCN(S(=O)(=O)c3ccc(-c4ccccc4)cc3)CC2)n1 |
| 1050 s | O=C(CSc1cc(N2CCCCC2)ncn1)Nc1cccc(Br)c1 |
| 903 s | Cc1nc(-c2ccccc2)cc2nn(CC(=O)N3CCC(C)CC3)c(=O)n12 |
| 632 s | CCOc1ccc2nc(N3CCCC(C(=O)NCCCN4CCOCC4)C3)sc2c1 (stereo not given) |
| 1270 s | CCn1c(C(=O)N2CCN(c3ccccc3F)CC2)cc2c(-c3cccs3)nn(-c3ccccc3)c21 |
| 755 s | COC(=O)c1ncn2c1C(=O)N(Cc1cccc(Cl)c1)C(C)(C(=O)NCc1ccccc1)C2 (stereo not given) |
| 1020 s | COc1ccc(NC(=O)c2cc(S(=O)(=O)N3CCC(C)CC3)cn2C)c(OC)c1 |
| 796 s | COC(=O)c1cc(OCC(=O)Nc2ccc(OC)cc2)c2cc(F)ccc2n1 |
| 1190 s | Cc1ccc(S(=O)(=O)N2CCCCCC2)cc1-c1nnc(-c2ccccc2)o1 |
| 731 s | COCc1nc(CCNS(=O)(=O)c2ccc(OC)cc2)no1 |
| 700 s | Cc1nc(-c2ccccc2)cc2nn(CC(=O)N3CCOCC3)c(=O)n12 |
| 715 s | COc1ccc(Cl)cc1-n1nnc(C(=O)NC2CC2)c1-c1ccncc1 |
| 841 s | COc1ccc2cc(C(=O)N3CCC(CC(=O)NCCc4c[nH]c5ccc(Cl)cc45)CC3)[nH]c2c1 |

| RP-LC retention time | SMILES |
| --- | --- |
| 698 s | COc1cc(-c2nc3ccc(C)cn3c2Nc2ccc(Cl)cc2)ccc1O |
| 565 s | COc1ccc2c(c1)c(CN1CCC(C(=O)NCCCN3CCc4ccccc4C3)CC1)cn2C |
| 846 s | O=C1NCCCCCCN(C(=O)Nc2ccccc2F)[C@H]2CCCC[C@@H]12 |
| 571 s | CS(=O)(=O)N[C@H]1C[C@@H]2C[C@H]1CN2C(=O)c1ccc(C(F)(F)F)cc1 |
| 708 s | Cc1ccc(C2NC(=O)N(C)C3=C2C(=O)N(C(CC(C)C)C(=O)N2CCOCC2)C3)c(C)c1 (stereo not given) |
| 1010 s | CC1CCCN(c2ccc(-c3noc(CN4CCN(c5ccccc5)CC4)n3)cn2)C1 (stereo not given) |
| 695 s | CCNC(=O)CCCN1C(=O)CCn2nc(-c3cn(C)c4ccccc34)cc21 |
| 873 s | COc1ccccc1Cc1noc(C2CN(C(=O)c3ccccc3C(F)(F)F)C2)n1 |
| 1100 s | CCc1nc(N2CCC(C(=O)NCc3ccc(F)c(Cl)c3)CC2)c2c(C)scc2n1 |
| 1220 s | Cc1ccc(NC(=O)c2c(C)sc3ncnc(N4CCCC(C)C4)c23)cc1 (stereo not given) |
| 816 s | CCc1ccc(NC(=O)N2CCC(n3c(-c4ccco4)nc4cccnc43)C2)cc1 (stereo not given) |
| 853 s | O=C(COc1ccc(F)cc1)NCc1ccc2c(c1)OCCCO2 |
| 852 s | O=C(CCC1CCN(S(=O)(=O)c2ccccc2)CC1)NC1CCCC1 |
| 774 s | COc1ccc2nc(OC3CCN(C(=O)c4ccc(S(C)(=O)=O)cc4)CC3)sc2c1 |
| 882 s | O=C(NC1CCCCCC1)C1CCN(Cc2cc3ccccc3n2Cc2cccc(Cl)c2)CC1 |
| 1250 s | CCCCCn1c(=O)c2ccccc2n(Cc2nc(-c3ccccc3OCC)no2)c1=O |
| 847 s | Cc1c(OC(C)C(=O)O)ccc2c1oc(=O)c1ccccc12 (stereo not given) |
| 976 s | O=C(Cn1c2ccccc2c2ncn(Cc3nc(-c4ccccc4)no3)c(=O)c21)NC1CCCCC1 |
| 617 s | O=C1CCN(C(=O)c2ccoc2)CCCCCCN1 |
| 1120 s | CCc1ccc(Oc2nccnc2N2CCC(C(=O)NC(C)c3ccccc3)CC2)cc1 (stereo not given) |
| 937 s | O=C(Nc1ccc(Br)cc1F)NC1CCN(c2ccc(F)cc2)C1=O (stereo not given) |
| 955 s | C(=C\CSc1ccccn1)/CSc1ccccn1 |

| RP-LC retention time | SMILES |
| --- | --- |
| 607 s | Cn1ncc2c3ccccc3n(CCCC(=O)N3CCN(c4ccccn4)CC3)c2c1=O |
| 683 s | Cn1cc(CC(=O)NCc2cc(F)ccc2F)c2cccnc21 |
| 650 s | Cc1noc([C@@H]2CN(C(=O)CCc3nc4ccccc4s3)C[C@H]2C(N)=O)n1 |
| 1050 s | COc1ccc(OCC(=O)Nc2nc(-c3ccccc3)cs2)cc1 |
| 710 s | CN(C)C(=O)c1cc2c(s1)CCC(C(=O)NCCc1ccccc1)C2 (stereo not given) |
| 820 s | COc1ccc(C(=O)N2CCC3(CC2)N=C(c2ccc(Br)cc2)NO3)cc1OC |
| 1020 s | Cc1cccc(N2CCN(S(=O)(=O)c3ccc(-c4nnc(C5CC5)o4)o3)CC2)c1 |
| 917 s | O=C(NCCC1=CCCCC1)C1CCN(Cc2cc3ccccc3n2Cc2ccc(Cl)cc2)CC1 |
| 966 s | CCOc1ccc(-c2noc(Cn3nc4ccc(-c5ccc(C)cc5)nn4c3=O)n2)cc1OC |
| 1170 s | CCN1C(=O)c2ccccc2Oc2ccc(C(=O)NCc3ccc4c(c3)OCO4)cc21 |
| 805 s | Cc1[nH]c2ccccc2c1C(=O)C(=O)N(C)Cc1ccccc1 |
| 802 s | COCCN1C(=O)CCc2cc(NS(=O)(=O)c3ccc(C)c(F)c3)ccc21 |
| 640 s | COc1ccccc1C(=O)NCCc1c[nH]c2ccc(Cl)cc12 |
| 919 s | O=C(NCc1cc(F)ccc1F)C1CN(S(=O)(=O)c2cccnc2)CC12CCCCC2 (stereo not given) |
| 759 s | CCN1c2ccc(F)cc2C(=O)NC12CCN(C(=O)c1ccccc1OC)CC2 |
| 727 s | O=C(Nc1cc(F)ccc1F)Nc1cccn2cnnc12 |
| 762 s | Cc1cc(CNC(=O)C2CCCC2)c(C)o1 |
| 1110 s | Cc1sc(C)c(S(=O)(=O)N2CCC3(CC2)OCCO3)c1-c1cc(C(F)(F)F)on1 |
| 620 s | Cc1nc2ccc(Cl)cn2c(=O)c1NC(=O)c1cccs1 |
| 777 s | CC(=O)Nc1cccc2c(C(=O)NCCC(C)C)ccnc12 |
| 570 s | CN(C)C(=O)c1cc2c(s1)CCC(C(=O)N1CCN(c3ccccn3)CC1)C2 (stereo not given) |
| 733 s | CCCNc1cc(N2CCC(CCC(=O)Nc3ccc(C)cc3C)CC2)ncn1 |

| RP-LC retention time | SMILES |
| --- | --- |
| 568 s | COc1ccc(Nc2ncnc3[nH]ncc23)c(OC)c1 |
| 574 s | Cn1nc(C(=O)N2CCCC2)c2c1CCN(C(=O)CCC(=O)NCCCN1CCCC1)C2 |
| 647 s | Cc1cccc(CNC(=O)c2ccc3ncnc(N4CCCC4)c3c2)c1 |
| 863 s | Cc1cnn(Cc2nc(-c3ccc(NC(=O)C(C)(C)C)cc3)oc2C)c1 |
| 714 s | Cc1ccc(NC(=O)CCC2CCN(c3cc(NC4CC4)ncn3)CC2)c(C)c1 |
| 725 s | COC(=O)c1sc2cccc(F)c2c1S(=O)(=O)N1CCN(c2ccccn2)CC1 |
| 679 s | Cc1ccccc1NS(=O)(=O)c1cc2[nH]c(=O)[nH]c2cc1C |
| 696 s | CN(C)S(=O)(=O)c1ccc2c(c1)N(CC(=O)NCC1COCCO1)C(=O)C1CCCCN21 (stereo not given) |
| 576 s | CN(C)[C@@H]1CN(C(=O)c2ccsc2)CC[C@]1(O)c1ccccc1 |
| 568 s | COc1ncccc1CN(C)C(=O)COc1ccccc1 |
| 859 s | COc1cc(OC)c(NC(=O)Cn2ccc3ccc(-c4nnc(C)o4)cc32)cc1Cl |
| 1140 s | COc1ccc(N2N=NC3C(=O)N(c4ccc(F)cc4)C(=O)C32)cc1OC (stereo not given) |
| 843 s | CSc1ccc(-c2nc3ncccn3c2Nc2cccc(C)c2)cc1 |
| 760 s | COc1ccccc1NC(=O)CN1C(=O)NC2(CCCCC2)C1=O |
| 990 s | CCN1c2ccc(C(=O)Nc3ccc4c(c3)OCCO4)cc2-c2ccccc2S1(=O)=O |
| 697 s | CCNC(=O)c1cc(C)nc2ccc(C(C)C)cc12 |
| 683 s | CCOc1ccc2c(n1)CCN(C(=O)C1(c3ccc(OC)cc3)CC1)C2 |
| 1260 s | COc1ccccc1N1CCN(c2cc(SCC(=O)Nc3ccc(Cl)cc3F)ncn2)CC1 |
| 934 s | O=C(Nc1nccnc1C(=O)NC1CCCC1)c1ccccc1 |
| 663 s | CS(=O)(=O)N1CCC(C(=O)NCC2CCN(C(=O)Oc3ccccc3)CC2)CC1 |
| 918 s | O=C(Nc1ccc(F)cc1)C(=O)c1c[nH]c2ccccc12 |
| 1070 s | CCn1c(=O)c2ccccc2n(Cc2nc(-c3cccc(C)c3)no2)c1=O |

| SMILES | RP-LC retention time |
| --- | --- |
| CN1C(=O)NC2NCN(C)C2C1=O (stereo not given) | 576 s |
| C[C@H]1CNCCc2ccc(Cl)cc21 | 652 s |
